# Key:
# Assay in all cases: relative viability (nuclei count vs DMSO), 5 days (fraction); higher = more cells survive
# Pictilisib + OSI-027 = compound: CS(=O)(=O)N1CCN(Cc2cc3nc(-c4cccc5[nH]ncc45)nc(N4CCOCC4)c3s2)CC1 [Pictilisib] + COc1cccc2cc(-c3nc([C@H]4CC[C@H](C(=O)O)CC4)n4ncnc(N)c34)[nH]c12 [OSI-027] (partner 0.5 µM)
# Summary of the method: (§1)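 A single step with final 0.05% Triton X-100, 1% formaldehyde and 1 ug/ml Hoechst fixed the cells and stained nuclei 5 days after treatment. Lung cancer cell lines in 1536-well plates had been treated by pin tool the day after seeding with one drug alone or a fixed anchor-drug dose plus five library-drug doses (not always all listed) in √10 steps, and nuclei were counted on 4× images. Relative viability is the ratio of nuclei in treated wells to nuclei in vehicle wells, taken as the median of duplicate plates.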
# Pictilisib + Linsitinib = compound: CS(=O)(=O)N1CCN(Cc2cc3nc(-c4cccc5[nH]ncc45)nc(N4CCOCC4)c3s2)CC1 [Pictilisib] + C[C@]1(O)C[C@@H](c2nc(-c3ccc4ccc(-c5ccccc5)nc4c3)c3c(N)nccn32)C1 [Linsitinib] (partner 1 µM)
# Summary of the method: as §1
# Pictilisib + Foretinib = compound: CS(=O)(=O)N1CCN(Cc2cc3nc(-c4cccc5[nH]ncc45)nc(N4CCOCC4)c3s2)CC1 [Pictilisib] + COc1cc2c(Oc3ccc(NC(=O)C4(C(=O)Nc5ccc(F)cc5)CC4)cc3F)ccnc2cc1OCCCN1CCOCC1 [Foretinib] (partner 0.25 µM)
# Summary of the method: as §1
# Pictilisib + Olaparib = compound: CS(=O)(=O)N1CCN(Cc2cc3nc(-c4cccc5[nH]ncc45)nc(N4CCOCC4)c3s2)CC1 [Pictilisib] + O=C(c1cc(Cc2n[nH]c(=O)c3ccccc23)ccc1F)N1CCN(C(=O)C2CC2)CC1 [Olaparib] (partner 8 µM)
# Summary of the method: as §1
# MK-2206 + Alpelisib = compound: NC1(c2ccc(-c3nc4ccn5c(=O)[nH]nc5c4cc3-c3ccccc3)cc2)CCC1 [MK-2206] + Cc1nc(NC(=O)N2CCC[C@H]2C(N)=O)sc1-c1ccnc(C(C)(C)C(F)(F)F)c1 [Alpelisib] (partner 2 µM)
# Summary of the method: as §1
Cell Line,relative viability (Pictilisib + OSI-027; first compound 0.02 µM),relative viability (Pictilisib + OSI-027; first compound 0.06325 µM),relative viability (Pictilisib + OSI-027; first compound 0.6325 µM),relative viability (Pictilisib + OSI-027; first compound 2 µM),relative viability (Pictilisib + Linsitinib; first compound 0.02 µM),relative viability (Pictilisib + Linsitinib; first compound 0.06325 µM),relative viability (Pictilisib + Linsitinib; first compound 0.6325 µM),relative viability (Pictilisib + Linsitinib; first compound 2 µM),relative viability (Pictilisib + Foretinib; first compound 0.02 µM),relative viability (Pictilisib + Foretinib; first compound 0.06325 µM),relative viability (Pictilisib + Foretinib; first compound 0.6325 µM),relative viability (Pictilisib + Foretinib; first compound 2 µM),relative viability (Pictilisib + Olaparib; first compound 0.02 µM),relative viability (Pictilisib + Olaparib; first compound 0.06325 µM),relative viability (Pictilisib + Olaparib; first compound 0.6325 µM),relative viability (Pictilisib + Olaparib; first compound 2 µM),relative viability (MK-2206 + Alpelisib; first compound 0.01 µM),relative viability (MK-2206 + Alpelisib; first compound 0.03162 µM),relative viability (MK-2206 + Alpelisib; first compound 0.3162 µM),relative viability (MK-2206 + Alpelisib; first compound 1 µM)
NCI-H2023,0.385,0.33,0.151,0.0847,0.508,0.414,0.208,0.264,0.838,0.804,0.578,0.183,0.521,0.451,0.354,0.134,0.517,0.598,0.472,0.405
NCI-H2085,0.706,0.802,0.303,0.284,0.86,0.835,0.786,0.334,0.858,0.811,0.572,0.329,0.764,0.823,0.586,0.353,0.928,0.914,0.807,0.702
NCI-H2087,0.503,0.446,0.32,0.237,1.12,1.02,0.918,0.944,1,1.19,0.828,0.588,0.537,0.477,0.493,0.345,1.17,1.03,1.12,1.1
NCI-H2126,0.706,0.75,0.541,0.427,0.692,0.692,0.609,0.5,1.23,1.14,0.931,0.423,0.911,0.894,0.713,0.496,0.719,0.707,0.678,0.621
NCI-H2228,0.587,0.431,0.283,0.155,0.533,0.637,0.31,0.184,0.853,0.917,0.496,0.291,0.715,0.734,0.45,0.209,0.625,0.621,0.288,0.262
NCI-H2347,0.458,0.213,0.286,0.217,1.02,1.08,1.1,0.933,0.843,0.937,1.19,0.438,0.639,0.626,0.474,0.406,0.967,1.11,1.11,0.973
NCI-H2405,0.548,0.569,0.486,0.278,1.05,0.96,0.7,0.5,1.01,0.965,0.847,0.562,0.871,0.867,0.735,0.422,0.762,0.877,0.728,0.673
NCI-H3122,0.909,0.786,0.435,0.172,0.988,0.963,0.681,0.354,0.998,0.997,0.973,0.785,0.603,0.659,0.595,0.329,0.737,0.659,0.677,0.636
PC-3 [JPC-3],0.591,0.718,0.621,0.433,0.985,0.945,0.97,0.893,1.01,1.09,0.931,0.827,1.24,1.31,1.21,0.754,0.985,1.01,1.02,1.04
PC-14,1.02,1,0.557,0.266,0.934,0.937,0.91,0.588,1.04,0.976,0.953,0.805,0.385,0.39,0.442,0.341,0.852,0.98,0.74,0.881
RERF-LC-KJ,0.531,0.559,0.402,0.371,0.823,0.881,0.818,0.618,0.879,0.847,0.709,0.627,0.925,0.834,0.784,0.578,0.922,0.802,0.663,0.697
SK-LU-1,0.38,0.335,0.185,0.19,1.21,1.13,0.987,0.628,0.878,0.892,0.652,0.422,0.451,0.492,0.409,0.367,1.13,0.979,0.993,0.876
SK-MES-1,0.596,0.566,0.334,0.215,1.02,1.01,0.836,0.456,1.02,0.86,0.494,0.271,0.881,0.654,0.474,0.296,0.882,1.05,0.786,0.851
SW 1573,0.615,0.584,0.362,0.237,0.844,0.709,0.618,0.41,0.865,0.805,0.706,0.501,0.512,0.542,0.377,0.22,0.763,0.817,0.607,0.613

# Reference: the supplement of paper PMC10307832
